The values below come from patent publication US8067408B2, “Dual pharmacophores—PDE4-muscarinic antagonistics” (priority 2008, dated 2011).

The term melting point denotes the temperature, or range, at which the solid turns liquid. Molecule `CCc1nc2c(cnn2CC)c(NC2CCOCC2)c1CNC(=O)c1cccc(C(=O)NCc2ccc(OC)c(-c3cccc(CN4C[C@@H](C)N[C@@H](C)C4)c3)c2)c1` [Example 210, N-{[1,6-Diethyl-4-(tetrahydro-2H-pyran-4-ylamino)-1H-pyrazolo[3,4-b]pyridin-5-yl]methyl}-N′-{[3′-{[(3R,5S)-3,5-dimethyl-1-piperazinyl]methyl}-6-(methyloxy)-3-biphenylyl]methyl}-1,3-benzenedicarboxamide] registered a melting point of 127 to 129 °C.
`CCc1nc2c(cnn2CC)c(NC2CCOCC2)c1CNC(=O)c1cccc(C(=O)NCc2ccc(C)c(-c3cccc(CN4C[C@@H](C)N[C@@H](C)C4)c3)c2)c1` [Example 211, N-{[1,6-Diethyl-4-(tetrahydro-2H-pyran-4-ylamino)-1H-pyrazolo[3,4-b]pyridin-5-yl]methyl}-N′-[(3′-{[(3R,5S)-3,5-dimethyl-1-piperazinyl]methyl}-6-methyl-3-biphenylyl)methyl]-1,3-benzenedicarboxamide] had a melting point of 109 to 112 °C.
For `CCc1nc2c(cnn2CC)c(NC2CCOCC2)c1CNC(=O)c1cccc(C(=O)NCc2ccc(C)c(-c3cccc(CN4CCN[C@@H](C)C4)c3)c2)c1` [Example 212, N-{[1,6-Diethyl-4-(tetrahydro-2H-pyran-4-ylamino)-1H-pyrazolo[3,4-b]pyridin-5-yl]methyl}-N′-[(6-methyl-3′-{[(3S)-3-methyl-1-piperazinyl]methyl}-3-biphenylyl)methyl]-1,3-benzenedicarboxamide], the melting point fell in the range of 115 to 118 °C.
The value for `CCc1nc2c(cnn2CC)c(NC2CCOCC2)c1CNC(=O)c1cccc(C(=O)NCc2ccc(OC)c(-c3cccc(CN4CCN[C@@H](C)C4)c3)c2)c1` [Example 213, N-{[1,6-Diethyl-4-(tetrahydro-2H-pyran-4-ylamino)-1H-pyrazolo[3,4-b]pyridin-5-yl]methyl}-N′-[(6-(methyloxy)-3′-{[(3S)-3-methyl-1-piperazinyl]methyl}-3-biphenylyl)methyl]-1,3-benzenedicarboxamide] was 110 to 112 °C; that for `CCc1nc2c(cnn2CC)c(NC2CCOCC2)c1CNC(=O)c1cccc(C(=O)NCc2ccc(Cl)c(-c3cccc(CN4CCN[C@@H](C)C4)c3)c2)c1` [Example 214, N-[(6-Chloro-3′-{[(3S)-3-methyl-1-piperazinyl]methyl}-3-biphenylyl)methyl]-N′-{[1,6-diethyl-4-(tetrahydro-2H-pyran-4-ylamino)-1H-pyrazolo[3,4-b]pyridin-5-yl]methyl}-1,3-benzenedicarboxamide] was 117 to 120 °C.
For the molecule `CCc1nc2c(cnn2CC)c(NC2CCOCC2)c1CNC(=O)c1cccc(C(=O)NCc2ccc(Cl)c(-c3cccc(CN4CCN[C@@H](C)C4)c3)c2)c1` [Example 215, N-[(6-Chloro-3′-{[(3S)-3-methyl-1-piperazinyl]methyl}-3-biphenylyl)methyl]-N′-{[1,6-diethyl-4-(tetrahydro-2H-pyran-4-ylamino)-1H-pyrazolo[3,4-b]pyridin-5-yl]methyl}-1,3-benzenedicarboxamide], the melting point was 116 to 118 °C.
Then `CCc1nc2c(cnn2CC)c(NC2CCOCC2)c1CNC(=O)c1cccc(C(=O)NCc2ccc(C)c(-c3cccc(CN4CCCN(C)CC4)c3)c2)c1` [Example 216, N-{[1,6-Diethyl-4-(tetrahydro-2H-pyran-4-ylamino)-1H-pyrazolo[3,4-b]pyridin-5-yl]methyl}-N′-({6-methyl-3′-[(4-methylhexahydro-1H-1,4-diazepin-1-yl)methyl]-3-biphenylyl}methyl)-1,3-benzenedicarboxamide], with 107 to 109 °C.
Molecule `CCc1nc2c(cnn2CC)c(NC2CCOCC2)c1CNC(=O)c1cccc(C(=O)NCc2ccc(OC)c(-c3cccc(CN4CCCN(C)CC4)c3)c2)c1` [Example 217, N-{[1,6-Diethyl-4-(tetrahydro-2H-pyran-4-ylamino)-1H-pyrazolo[3,4-b]pyridin-5-yl]methyl}-N′-{[3′-[(4-methylhexahydro-1H-1,4-diazepin-1-yl)methyl]-6-(methyloxy)-3-biphenylyl]methyl}-1,3-benzenedicarboxamide] yielded a melting point of 116 to 119 °C.
